Reference: US20250057961A1, “BLOOD-BRAIN BARRIER PENETRATING DRUG DELIVERY SYSTEM USING SIALYLLACTOSE” (GENECHEM INC., priority 2021, published 2025)
“Also recorded” adds a separate entry of the source. Where two headings read alike, the source gives them in different places.

Columns and labels:
[1] = Blood-brain barrier penetration experiment: brain fluorescence of Cy5.5-attached substances (IVIS spectrum CT, in vivo and extracted brain); conditions: for brain penetration (fluorescence signal in the brain): Cy5.5-attached substance, into the veins, up to 24 hours, FIGS. 1-3
Procedure: (§1) First, the fluorescent substance Cy5.5 (Genechem, Cat no. GCCD0064) was attached to each of lactose, 2,3-sialyllactose (GCB100) and 2,6-sialyllactose (GCB200), and each substance was dissolved and diluted in 10% DMSO, thus preparing samples (final DMSO concentration is approximately 2% of the total volume). After administering each sample at 1 mol/kg into the veins of BALB/c nude mice, the fluorescence signals in the brains of the nude mice were measured at different time points (1, 2, 4, 6, 8, and 24 hours) using the IVIS spectrum CT (Perkin Elmer).
(§2) Next, the fluorescent substance Cy5.5 (Genechem, Cat no. GCCD0064) was attached to each of sialic acid, 2,3-sialyllactose (GCB100) and 2,6-sialyllactose (GCB200), and each substance was dissolved and diluted in 10% DMSO, thus preparing samples (final DMSO concentration is approximately 2% of the total volume). After administering each sample at 1 mol/kg into the veins of BALB/c nude mice, the fluorescence signals in the brains of the nude mice were measured at different time points (10 min, 30 min, 1, 2, 4, 6, 8, and 24 hours) using the IVIS spectrum CT (Perkin Elmer). 24 hours after administration, the nude mice were perfused with saline solution, the brains were extracted, and fluorescence present in the brains was measured.
(§3) The experiment was conducted in the same manner as the above-described experiment on blood-brain barrier penetration of sialyllactose.
(§4) Here, Cy5.5 alone and gemcitabine attached to only Cy5.5 were used as controls. First, each material was dissolved and diluted in 10% DMSO, thus preparing samples (final DMSO concentration is approximately 2% of the total volume). After administering each sample at 1 mol/kg into the veins of BALB/c nude mice, the fluorescence signals in the brains of the nude mice were measured at different time points (10 min, 30 min, 1, 2, 4, 6, 8, and 24 hours) using the IVIS spectrum CT (Perkin Elmer). 24 hours after administration, the nude mice were perfused with saline solution, the brains were extracted, and fluorescence present in the brains was measured.

[2] = system: U-87MG; experiment: Anticancer efficacy in mouse brain cancer model (luciferase-expressing U-87MG transplanted into brain, optical imaging); type: in vivo; conditions: intravenously twice a week, 8 times for 4 weeks; GCB017 22 mol/kg; days 20, 24, 27; FIG. 13
Procedure: The brain cancer model was produced by transplanting U-87MG, a brain cancer cell line that expresses luciferase. For transplantation into the brain, each animal was anesthetized by isoflurane injection and fixed on a stereotaxic arm, and the head skin was incised vertically by about 1 cm and the injection site was exposed using a micro drill. The cell line was transferred into a 25-μl Hamilton syringe equipped with a 31-gauge needle, and then the cell line was transplanted at a rate of 1 i/min to an area 1 mm anterior, 2 mm lateral, and 3 mm deep based on bregma. After cell line transplantation, in order to prevent reflux and ensure good absorption, the syringe was maintained for about 10 minutes and separated, and the incision was sutured and disinfected. After confirming that the anesthesia had worn off, the animals were reared normally. Starting 1 week after model production, each of methotrexate and GCB017 was administered intravenously twice a week for a total of 8 times for 4 weeks, and the size of the brain tumor was measured by optical imaging (FIG. 13). […] In combination with the results of Examples 3-2 and 3-3 above, it is believed that the sialyllactose-methotrexate conjugate according to the present invention has an improved BBB penetration ability compared to methotrexate and inhibits tumor formation and growth.

[3] = mouse, in vivo
Procedure: as §1, §2, §3, §4

[4] = Brain tissue penetration and substance dissociation (LC-MS/MS of tissue homogenate supernatant); type: in vivo
Procedure: To examine the distribution and dissociation of sialyllactose-conjugated methotrexate in tissues, GCB017 was administered and the presence of GCB017 and its dissociates (linker-6′SL (L-6′SL) and linker) in the brain and pancreas was checked. Specifically, GCB017 was dissolved and diluted in 10% DMSO, thus preparing a sample (final DMSO concentration was approximately 2% of the total volume). The sample was administered intravenously (IV) at a dose of 80 mg/kg or administered orally (PO) at a dose of 80 mg/kg. Then, at different time points (0, 0.5, 2, and 4 hours), the animals were anesthetized, heart blood was collected, saline solution was perfused, and the brain and pancreas were extracted. Each of the extracted tissues was homogenized in 50 mM Tris-HCl buffer (pH 7.5) at a ratio of 1:5 and centrifuged at 3,000 rpm and 4° C. for 20 minutes, and the supernatant was collected and subjected to mass spectrometry (SCIEX Triple Quad 3500 LC-MS/MS system).
The sample was administered intravenously (IV) at a dose of 80 mg/kg or administered orally (PO) at a dose of 246 mg/kg. Then, at different time points (0, 0.5, 2, and 4 hours), the animals were anesthetized, heart blood was collected, saline solution was perfused, and the brain and pancreas were extracted. Each of the extracted tissues was homogenized in 50 mM Tris-HCl buffer (pH 7.5) at a ratio of 1:5 and centrifuged at 3,000 rpm and 4° C. for 20 minutes, and the supernatant was collected and subjected to mass spectrometry (SCIEX Triple Quad 3500 LC-MS/MS system).

[5] = system: BxPC-3; conditions: 5, 10, 20 and 40 nM, 72 hours, FIG. 16A
[6] = system: Caspase-3; conditions: BxPC-3, 5-40 nM, 72 hours, FIG. 16B
[7] = system: PARP; conditions: BxPC-3, 5-40 nM, 72 hours, FIG. 16B

2,3-sialyllactose [GCB100]
brain penetration (fluorescence signal in the brain) [1]: well delivered to the brain, compared to lactose-bound Cy5.5

2,6-sialyllactose [GCB200]
brain penetration (fluorescence signal in the brain) [1]: well delivered to the brain, compared to lactose-bound Cy5.5; also recorded: the effect of 2,6-sialyllactose was higher than that of 2,3-sialyllactose

CCN1\C(=C/C=C/C=C/C2=[N+](CCCCCC(=O)O)c3ccc4c(S(=O)(=O)O)cc(S(=O)(=O)O)cc4c3C2(C)C)C(C)(C)c2c1ccc1c(S(=O)(=O)[O-])cc(S(=O)(=O)O)cc21 [Cy5.5, reference compound]
brain penetration (fluorescence signal in the brain) [1]: barely penetrated the blood-brain barrier | brain penetration (fluorescence signal in the brain) of sialyllactose-conjugated dopamine ([1]; Cy5.5-attached, controls Cy5.5-dopamine or Cy5.5, FIGS. 5, 6, 8, 9): barely detected in the brain

CC(=O)N[C@H]1[C@H]([C@H](O)[C@H](O)CO)O[C@@](OC[C@H]2O[C@@H](O[C@H]3[C@H](O)[C@@H](O)[C@H](OCCCCCCNC(=O)CC[C@H](NC(=O)c4ccc(N(C)Cc5cnc6nc(N)nc(N)c6n5)cc4)C(=O)O)O[C@@H]3CO)[C@H](O)[C@@H](O)[C@H]2O)(C(=O)O)C[C@@H]1O [GCB017]
size of the brain tumor [2]: tumor formation was delayed and the tumor size was also controlled | fluorescence signal in the brain of sialyllactose-conjugated methotrexate [3]: a strong fluorescence signal appeared | presence of GCB017 and its dissociates in brain tissue ([4]; 80 mg/kg IV or 80 mg/kg PO): detected in the brain tissue not only when GCB017 was administered intravenously but also when administered orally | level at 2 h ([4]; brain, iv, 80 mg/kg, GCB017 80 mg/kg IV, 2 h, single animals): 52.7 ng/mL | level at 4 h ([4]; brain, po, 80 mg/kg, GCB017 80 mg/kg PO, 4 h, single animals): 30.3 ng/mL

CN(Cc1cnc2nc(N)nc(N)c2n1)c1ccc(C(=O)N[C@@H](CCC(=O)O)C(=O)O)cc1 [methotrexate, reference compound]
size of the brain tumor [2]: the tumor size also tended to increase gradually starting from day 20 | fluorescence signal in the brain of sialyllactose-conjugated methotrexate ([1]; Cy5.5-attached, time-dependent and extracted brain at 24 hours, FIGS. 11, 12): almost no fluorescence signal appeared in the brain

CC(=O)N[C@H]1[C@H]([C@H](O)[C@H](O)CO)OC(O)(C(=O)O)C[C@@H]1O (stereo partly drawn) [sialic acid, reference compound]
brain penetration (fluorescence signal in the brain) [3]: brain penetration remained at a similar level

gemcitabine-succinate-aminohexyl-6′SL [GCB034]
cell viability (anticancer effect) [5]: induce cancer cell death at all treatment concentrations, but also exhibited a higher anticancer effect than gemcitabine | increase in Caspase-3 cleavage [6]: significant in a concentration-dependent manner | decrease in the pro-form of PARP [7]: significant in a concentration-dependent manner
